Laboratory results published in paper PMC4976316, “A pivotal role of vacuolar H^+-ATPase in regulation of lipid production in Phaeodactylum tricornutum” (Scientific Reports, 2016).

Target: T1, Vacuolar H^+-ATPase (V-ATPase) (Phaeodactylum tricornutum, UniProt B7G3I2+B7GCN4)
T1 construct: gene PHATRDRAFT_16442; native complex in microsomal membrane protein from algal cells, not purified; subunit genes not identified; with V-type proton ATPase subunit a; V-type proton ATPase catalytic subunit A; V-type proton ATPase subunit B; V-type proton ATPase subunit C; V-type proton ATPase subunit D; V-type proton ATPase subunit E; V-type proton ATPase subunit F; V-type proton ATPase subunit G; V-type proton ATPase subunit H; V-type proton ATPase subunit d
Experiment: concanamycin A-sensitive ATPase activity (phosphate release) of microsomal membranes
Format: cell-based
Details: 100 nM BFA1 added to the growing culture, enzyme assayed afterwards in microsomes; days-long treatment, indirect effects possible

With `CO/C1=C\C(C)=C\[C@@H](C)[C@@H](O)[C@@H](C)C/C(C)=C/C=C/[C@H](OC)[C@@H]([C@@H](C)[C@@H](O)[C@H](C)[C@@]2(O)C[C@@H](O)[C@H](C)[C@@H](C(C)C)O2)OC1=O` [BFA1, bafilomycin A1] as the molecule, how does the “% decrease of V-ATPase activity at 100 nM” value read?
The value was ~ 66%.
